From patent US9249147B2, “Tyrosine kinase inhibitors” (CHEMBRIDGE CORPORATION, priority 2008, dated 2016)

What was measured:
[1] = target: ALK (Homo sapiens, UniProt Q9UM73); test: ALK kinase assay (Kinase-Glo / AlphaScreen, purified NPM-ALK); format: biochemical; design: fused to the complete intracytoplasmic portion of ALK containing the functional tyrosine kinase domain; 6xHis; made in house; host or cells: insect cells; the other entry of the earlier key: NPM1 (P06748, Nucleophosmin); settings: Table 1; read-out: ALK IC50
Chain of ALK (Q9UM73 with tags, fused parts or gaps): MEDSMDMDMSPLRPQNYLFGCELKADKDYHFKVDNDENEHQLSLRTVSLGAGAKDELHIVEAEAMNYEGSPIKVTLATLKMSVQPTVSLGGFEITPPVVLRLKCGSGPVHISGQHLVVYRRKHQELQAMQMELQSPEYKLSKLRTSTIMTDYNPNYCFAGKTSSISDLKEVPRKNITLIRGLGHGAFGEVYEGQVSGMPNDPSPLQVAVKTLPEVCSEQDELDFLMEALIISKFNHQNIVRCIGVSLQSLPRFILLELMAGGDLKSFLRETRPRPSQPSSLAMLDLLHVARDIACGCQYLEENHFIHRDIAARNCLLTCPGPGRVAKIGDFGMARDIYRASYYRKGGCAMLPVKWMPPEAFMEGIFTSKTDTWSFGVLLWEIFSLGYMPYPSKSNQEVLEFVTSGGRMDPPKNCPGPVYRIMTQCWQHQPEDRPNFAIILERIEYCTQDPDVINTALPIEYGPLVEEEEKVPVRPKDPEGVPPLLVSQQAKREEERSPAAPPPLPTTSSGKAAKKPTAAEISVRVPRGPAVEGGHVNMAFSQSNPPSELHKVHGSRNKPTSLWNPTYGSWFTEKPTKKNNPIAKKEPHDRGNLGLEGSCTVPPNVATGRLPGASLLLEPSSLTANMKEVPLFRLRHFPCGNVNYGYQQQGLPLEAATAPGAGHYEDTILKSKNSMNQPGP

[2] = target: T1, IGF1R (Homo sapiens, UniProt P08069); test: IGF1R kinase assay; format: biochemical; settings: Table 1; read-out: IGF1R IC50
T1 construct: 6×His- or GST-tagged kinase domain fragments of the corresponding RTKs expressed in baculovirus system; host or cells: baculovirus system
T1 sequence (P08069 999-1274 limits assumed): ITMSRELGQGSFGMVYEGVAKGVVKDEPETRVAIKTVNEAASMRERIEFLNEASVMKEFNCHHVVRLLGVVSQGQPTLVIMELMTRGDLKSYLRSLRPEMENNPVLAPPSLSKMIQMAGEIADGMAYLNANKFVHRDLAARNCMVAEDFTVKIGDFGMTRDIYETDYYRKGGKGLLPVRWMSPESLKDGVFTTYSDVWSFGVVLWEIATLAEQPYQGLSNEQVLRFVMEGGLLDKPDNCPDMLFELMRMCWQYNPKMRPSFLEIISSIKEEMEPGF
Experimental: To determine inhibition of several tyrosine kinases, such as IGF1R, InsR, Alk, TrkA and Jak2, kinase assays are conducted using either Kinase-Glo (Promega) or AlphaScreen (PerkinElmer) kinase assay platforms. The Kinase-Glo Luminescent Kinase Assay is a homogeneous method for measuring kinase activity by determining the amount of ATP remaining after a kinase reaction. The luminescent signal is proportional to the amount of ATP and inversely proportional to the amount of kinase activity. Tyrosine kinase PT66 AlphaScreen Assay is a high-sensitivity homogeneous, anti-phosphotyrosine antibody-mediated luminescent proximity method measuring incorporation of phosphate in synthetic poly(Glu-Tyr) substrate. The kinase preparations used consist of purified recombinant, 6×His- or GST-tagged kinase domain fragments of the corresponding RTKs expressed in baculovirus system.
Compounds with a range of concentrations 40 μM, 20 μM, 10 μM, 5 μM, 2.5 μM, 1.25 μM, 0.625 μM, 0.3125 μM, 0.15625 μM and 0.078125 μM were incubated with NPM-ALK, which was produced in insect cells as a 6×HIS-tagged fusion protein and purified using nickel-charged resin chromatography, for 30 minutes at RT in the presence of 10 μM ATP and 7.0 ng biotinylated poly-GT. A 1:1 mixture of […] and donor beads was then added to the reaction and incubated for an additional 60 minutes at RT. The assay was conducted on a MultiPROBE liquid handling workstation (PerkinElmer) in a 384-well plate format with a total reaction volume of 40 μL per well. Working stocks of all compounds were dissolved in 100% DMSO and serial dilutions of the compounds were performed using kinase buffer (50 mM Tris-HCl (pH 7.5), 5 mM MgCl2, 5 mM MnCl2, 2 mM DTT (added freshly before use), 0.01% Tween-20) containing 5% DMSO. […] Data were collected as optical readings at 520-680 nm on a Fusion™ microplate analyzer (PerkinElmer), and IC50 and Ki values calculated using PRISM3.0 software (GraphPad Software, Inc., San Diego, Calif.). The same assay was also used with minor modifications to assess the IC50 and Ki values for selected compounds against five other tyrosine kinases (IRK, IGF1R, Flt3, Abl, Src), all of which were purchased from commercial vendors. PolyGT-Biotin was bought from CIS Biointernational Cat. #61GT0BLD; ATP—from Sigma Cat. # A7699; sodium orthovanadate—from Sigma Cat. #S-6508; phosphotyrosine (PT66) assay kit from PerkinElmer Cat. #6760602M; automated workstation tips (20 μL): PerkinElmer Cat. #6000657; and OptiPlate-384 (white)—from PerkinElmer Cat. #6007299.

IC50 [1] [nM]	IC50 [2] [nM]	Compound
> 1000	–	CN1CCC(N2C(=O)c3cc4nc(-c5c(N[C@H](CO)Cc6ccccc6)cc[nH]c5=O)[nH]c4cc3C2=O)CC1
> 1000	–	COC[C@H](Cc1ccccc1)Nc1cc[nH]c(=O)c1-c1nc2cc3c(cc2[nH]1)C(=O)N(C1CCN(C)CC1)C3=O
> 1000	–	COC[C@@H](Cc1ccccc1)Nc1cc[nH]c(=O)c1-c1nc2cc3c(cc2[nH]1)C(=O)N(C1CCN(C)CC1)C3=O
100 to 250	250 to 1000	CC(Cc1cccs1)Nc1cc[nH]c(=O)c1-c1nc2cc3c(cc2[nH]1)CN(CCCN1CCCC1)C3=O (stereo not shown)
100 to 250	–	CC(Cc1ccsc1)Nc1cc[nH]c(=O)c1-c1nc2cc3c(cc2[nH]1)C(=O)N(CCCN1CCCC1)C3=O (stereo not shown)
250 to 1000	250 to 1000	CC(Cc1ccsc1)Nc1cc[nH]c(=O)c1-c1nc2cc3c(cc2[nH]1)C(=O)N(CCCN1CCCC1)C3 (stereo not shown)
250 to 1000	–	CCC(Cc1cccs1)Nc1cc[nH]c(=O)c1-c1nc2cc3c(cc2[nH]1)C(=O)N(CCCN1CCCC1)C3=O (stereo not shown)
> 1000	–	CCC(Cc1cccs1)Nc1cc[nH]c(=O)c1-c1nc2cc3c(cc2[nH]1)C(=O)N(CCCN1CCCC1)C3 (stereo not shown)
> 1000	> 1000	Cc1noc(C)c1CC(C)Nc1cc[nH]c(=O)c1-c1nc2cc3c(cc2[nH]1)C(=O)N(CCCN1CCCC1)C3=O (stereo not shown)
> 1000	> 1000	Cc1noc(C)c1CC(C)Nc1cc[nH]c(=O)c1-c1nc2cc3c(cc2[nH]1)C(=O)N(CCCN1CCCC1)C3 (stereo not shown)
100 to 250	10 to 100	C[C@@H](Cc1cccs1)Nc1cc[nH]c(=O)c1-c1nc2cc3c(cc2[nH]1)C(=O)N(C1CCN(C)CC1)C3
> 1000	250 to 1000	C[C@H](Cc1cccs1)Nc1cc[nH]c(=O)c1-c1nc2c(Cl)c3c(cc2[nH]1)C(=O)N(C1CCN(C)CC1)C3
250 to 1000	100 to 250	C[C@H](Cc1cccs1)Nc1cc[nH]c(=O)c1-c1nc2cc3c(c(Cl)c2[nH]1)C(=O)N(C1CCN(C)CC1)C3
> 1000	100 to 250	Cc1ccc(CC(C)Nc2cc[nH]c(=O)c2-c2nc3cc4c(cc3[nH]2)C(=O)N(CCCN2CCCC2)C4)s1 (stereo not shown)
100 to 250	100 to 250	Cc1ccsc1CC(C)Nc1cc[nH]c(=O)c1-c1nc2cc3c(cc2[nH]1)C(=O)N(CCCN1CCCC1)C3 (stereo not shown)
250 to 1000	250 to 1000	Cc1csc(CC(C)Nc2cc[nH]c(=O)c2-c2nc3cc4c(cc3[nH]2)C(=O)N(CCCN2CCCC2)C4)c1 (stereo not shown)
> 1000	250 to 1000	Cc1cc(CC(C)Nc2cc[nH]c(=O)c2-c2nc3cc4c(cc3[nH]2)C(=O)N(CCCN2CCCC2)C4)sc1C (stereo not shown)
> 1000	100 to 250	Cc1cc(C)c(CC(C)Nc2cc[nH]c(=O)c2-c2nc3cc4c(cc3[nH]2)C(=O)N(CCCN2CCCC2)C4)s1 (stereo not shown)
> 1000	> 1000	CC(Cc1cc2ccccc2s1)Nc1cc[nH]c(=O)c1-c1nc2cc3c(cc2[nH]1)C(=O)N(CCCN1CCCC1)C3 (stereo not shown)
> 1000	> 1000	CCc1ccc(CC(C)Nc2cc[nH]c(=O)c2-c2nc3cc4c(cc3[nH]2)C(=O)N(CCCN2CCCC2)C4)s1 (stereo not shown)
> 1000	> 1000	COc1ccc(-c2ccc(CC(C)Nc3cc[nH]c(=O)c3-c3nc4cc5c(cc4[nH]3)C(=O)N(CCCN3CCCC3)C5)s2)cc1 (stereo not shown)
> 1000	> 1000	CC(Cc1ccc(-c2ccccc2)s1)Nc1cc[nH]c(=O)c1-c1nc2cc3c(cc2[nH]1)C(=O)N(CCCN1CCCC1)C3 (stereo not shown)
250 to 1000	250 to 1000	CC(Cc1ccc(Cl)s1)Nc1cc[nH]c(=O)c1-c1nc2cc3c(cc2[nH]1)C(=O)N(CCCN1CCCC1)C3 (stereo not shown)
250 to 1000	250 to 1000	COc1ccsc1C[C@H](C)Nc1cc[nH]c(=O)c1-c1nc2cc3c(cc2[nH]1)CN(CCCN1CCCC1)C3=O
100 to 250	250 to 1000	C[C@H](Nc1cc[nH]c(=O)c1-c1nc2cc3c(cc2[nH]1)C(=O)N(CCCN1CCCC1)C3=O)[C@H](O)c1ccccc1

IC50 [1] [nM]	IC50 [2] [nM]	Compound
100 to 250	250 to 1000	C[C@@H](Cc1cccs1)Nc1cc[nH]c(=O)c1-c1nc2cc3c(cc2[nH]1)C(=O)N(CCN1CCCC1)C3=O
100 to 250	250 to 1000	C[C@@H](Cc1sccc1Cl)Nc1cc[nH]c(=O)c1-c1nc2cc3c(cc2[nH]1)C(=O)N(CCN1CCCC1)C3=O
100 to 250	250 to 1000	Cc1ccsc1C[C@H](C)Nc1cc[nH]c(=O)c1-c1nc2cc3c(cc2[nH]1)CN(CCN1CCS(=O)(=O)CC1)C3=O
100 to 250	> 1000	Cc1ccsc1C[C@H](C)Nc1cc[nH]c(=O)c1-c1nc2cc3c(cc2[nH]1)C(=O)N(CCN(C)CCS(C)(=O)=O)C3=O
10 to 100	250 to 1000	Cc1ccsc1C[C@H](C)Nc1cc[nH]c(=O)c1-c1nc2cc3c(cc2[nH]1)C(=O)N(CCN(C)CCS(C)(=O)=O)C3
10 to 100	> 1000	Cc1ccccc1C[C@H](C)Nc1cc[nH]c(=O)c1-c1nc2cc3c(cc2[nH]1)C(=O)N(CCN1CCCC1)C3=O
10 to 100	250 to 1000	Cc1ccccc1C[C@H](C)Nc1cc[nH]c(=O)c1-c1nc2cc3c(cc2[nH]1)CN(CCN1CCCC1)C3=O
100 to 250	> 1000	C[C@@H](Cc1ccco1)Nc1cc[nH]c(=O)c1-c1nc2cc3c(cc2[nH]1)C(=O)N(CCN1CCCC1)C3=O
100 to 250	250 to 1000	C[C@@H](Cc1ccco1)Nc1cc[nH]c(=O)c1-c1nc2cc3c(cc2[nH]1)CN(CCN1CCCC1)C3=O
100 to 250	250 to 1000	CCN1CCC[C@@H]1CN1Cc2cc3nc(-c4c(N[C@@H](C)Cc5sccc5C)cc[nH]c4=O)[nH]c3cc2C1=O
10 to 100	100 to 250	CCN1CCC[C@H]1CN1Cc2cc3nc(-c4c(N[C@@H](C)Cc5sccc5C)cc[nH]c4=O)[nH]c3cc2C1=O
10 to 100	> 1000	C[C@@H](Cc1sccc1Cl)Nc1cc[nH]c(=O)c1-c1nc2cc3c(cc2[nH]1)C(=O)N([C@@H](C)CN(C)C)C3=O
10 to 100	> 1000	C[C@H](CN(C)C)N1C(=O)c2cc3nc(-c4c(N[C@@H](C)Cc5sccc5Cl)cc[nH]c4=O)[nH]c3cc2C1=O
10 to 100	> 1000	C[C@@H](Cc1sccc1Cl)Nc1cc[nH]c(=O)c1-c1nc2cc3c(cc2[nH]1)C(=O)N(C[C@H](C)N(C)C)C3=O
10 to 100	100 to 250	C[C@@H](Cc1sccc1Cl)Nc1cc[nH]c(=O)c1-c1nc2cc3c(cc2[nH]1)C(=O)N([C@@H](C)CN(C)C)C3
10 to 100	> 1000	C[C@H](CN1C(=O)c2cc3nc(-c4c(N[C@@H](C)Cc5sccc5Cl)cc[nH]c4=O)[nH]c3cc2C1=O)N(C)C
10 to 100	100 to 250	C[C@H](CN(C)C)N1Cc2cc3nc(-c4c(N[C@@H](C)Cc5sccc5Cl)cc[nH]c4=O)[nH]c3cc2C1=O
< 10	250 to 1000	C[C@@H](Cc1sccc1Cl)Nc1cc[nH]c(=O)c1-c1nc2cc3c(cc2[nH]1)C(=O)N(C[C@H](C)N(C)C)C3
< 10	250 to 1000	C[C@H](CN1Cc2cc3nc(-c4c(N[C@@H](C)Cc5sccc5Cl)cc[nH]c4=O)[nH]c3cc2C1=O)N(C)C
100 to 250	250 to 1000	C[C@@H](Cc1ccccc1F)Nc1cc[nH]c(=O)c1-c1nc2cc3c(cc2[nH]1)CN(CCN1CCCC1)C3=O
> 1000	> 1000	Cc1c(C[C@H](C)Nc2cc[nH]c(=O)c2-c2nc3cc4c(cc3[nH]2)CN(CCN2CCCC2)C4=O)ccc(F)c1F
> 1000	> 1000	Cc1c(C[C@H](C)Nc2cc[nH]c(=O)c2-c2nc3cc4c(cc3[nH]2)CN(CCN(C)C)C4=O)ccc(F)c1F
250 to 1000	250 to 1000	C[C@@H](Cc1cc(F)cc(F)c1F)Nc1cc[nH]c(=O)c1-c1nc2cc3c(cc2[nH]1)CN(CCN1CCCC1)C3
> 1000	250 to 1000	Cc1c(F)cc(F)cc1C[C@H](C)Nc1cc[nH]c(=O)c1-c1nc2cc3c(cc2[nH]1)CN(CCN1CCCC1)C3=O
100 to 250	250 to 1000	Cc1c(F)cc(F)cc1C[C@H](C)Nc1cc[nH]c(=O)c1-c1nc2cc3c(cc2[nH]1)CN(CCN(C)C)C3=O
